# Target: T1, PYL-MCP and LambdaN-ABI (Arabidopsis thaliana, UniProt Q8VZS8)
# T1 construct: expressed in transfected cells; host or cells: HEK293T
# Assay: Split-pegRNA recording of abscisic acid (ABA)-induced dimerization of PYL-MCP and LambdaN-ABI
# Type: cell-based
# Details: PYL-ABI pair, abscisic acid added to cell culture
# Excerpt: FIG. 3. Recording protein-protein interaction and small molecule exposure using Split-pegRNA recorders. a-b. Design of Split-pegRNA recorder with protein adaptors to record protein-protein interaction (a) and exposure to small molecule (b). c. Normalized editing efficiency of different pairs of constructs tagged with MCP and LambdaN adaptors. Editing efficiencies are scaled (“normalized”) to positive editing control of CTT insertion to HEK3 locus by epegRNA (“eCTT control”). In MCP-LambdaN condition, a single protein-expression construct with MCP tethered with LambdaN was transfected instead of a pair of protein-expression constructs. […]
# In the past 30 years, several chemicals have been identified as critical signaling molecules for promoting protein-protein interactions^8. We reasoned that the exposure of these “molecular glue” small molecules to cells can be recorded into the genome using specifically engineered split-pegRNA recorders. […]
# Sequencing reads from Illumina MiSeq™ and NextSeq™ platforms are first demultiplexed using BCL2fastq software (Illumina). […] Editing efficiencies were calculated using pattern-matching software such as Regular Expression (package REGEX) in Python, counting correct amplicon reads with or without intended edits (CTT insertion to HEK3 locus^1).
# T1 sequence (Q8VZS8 other isoform, or with tags, fused parts or gaps): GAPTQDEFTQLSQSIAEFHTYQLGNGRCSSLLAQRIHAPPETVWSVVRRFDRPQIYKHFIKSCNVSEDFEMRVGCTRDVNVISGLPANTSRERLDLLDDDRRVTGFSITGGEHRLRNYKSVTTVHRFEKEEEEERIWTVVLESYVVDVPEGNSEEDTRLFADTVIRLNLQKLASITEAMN
# T1 sequence (P49597 other isoform, or with tags, fused parts or gaps D143A, further chain): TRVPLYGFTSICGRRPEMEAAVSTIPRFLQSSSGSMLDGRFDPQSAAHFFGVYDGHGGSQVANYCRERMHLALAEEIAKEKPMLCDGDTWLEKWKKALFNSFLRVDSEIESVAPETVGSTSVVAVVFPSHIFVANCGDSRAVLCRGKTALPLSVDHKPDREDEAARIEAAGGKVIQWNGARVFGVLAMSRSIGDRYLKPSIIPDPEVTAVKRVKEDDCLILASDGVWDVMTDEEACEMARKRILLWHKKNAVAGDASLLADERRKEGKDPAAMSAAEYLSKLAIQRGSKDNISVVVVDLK
smiles,measurement,value
CC1=CC(=O)CC(C)(C)[C@@]1(O)/C=C/C(C)=C\C(=O)O [Abscisic acid],change in editing efficiency on addition of small molecule,strong increase in the editing efficiency
